Where a name gives a salt, the structure may show the parent alone.
Legend:
[1] = Examination for nonspecific immunosuppression (ear swelling, spleen index); assay type: in vivo, mouse; details: in comparison to PBS control; FIG. 9
[2] = system: mice immunized three times with P. acnes; test: Antibiotic treatment in the mouse pulmonary granuloma (sarcoidosis) model: BAL cell counts and histology; assay type: in vivo; details: for decrease of the total number of BAL leukocytes (improved by): percentage in comparison to the control (PBS) group set at 100; for number of CD4+ BAL cells decreased by: two weeks after the third immunization, antibiotics begun before immunization, FIG. 6b
Procedure: Female C57BL/6J mice of 5 to 7 weeks of age were obtained from CLEA Japan (Shizuoka, Japan) or Japan SLC, Inc. (Tokyo, Japan), and kept under specific pathogen-free (SPF) conditions in the animal facility of the Department of Molecular Preventive Medicine, Graduated School of Medicine, the University of Tokyo. All animal experiments were conducted in accordance with the guidelines of the University of Tokyo.
P. acnes-sensitized CD4^+ T cells were isolated from groins of normal mice and mice immunized three times. Immunization was conducted by subcutaneous injection of 400 μg of heat-killed P. acnes (ATCC11828, American Type Culture Collection, Manassas, Va.) and Freund's complete adjuvant (Difco, Detroit, Mich.) into the footpad at 2-week intervals. CD4^+ cells were isolated with the use of MACS system (Miltenyi Biotech, Bergisch Gladbach, Germany) according to manufacturer's instructions. The purity of CD4^+ cell populations was 94% or higher, as confirmed by immunostaining flow cytometry. The isolated CD4^+ cells (2×10^6 cells/PBS 200 μl) were injected into the tail vein of normal mice, and histological analysis of the lungs was conducted two weeks after the injection.
BAL cells were collected by five injections of 0.8 ml of sterile PBS containing 2% FCS (Sigma, St. Louis, Mo.) and 2 mM EDTA. The total number of BAL leukocytes was counted with a hemocytometer. Before the analysis with EPICS Elite instrument (Beckman Coulter, Miami, Fla.), BAL cells were preincubated with rat anti-mouse CD16/CD32 (clone; 2.4G2) mAb to block FcR-mediated binding, and then incubated for […] at 4° C. with FITC-conjugated anti-CD4 (H129.19) mAb and PE-conjugated anti-CD8a (53-6.7) mAb, both from BD Pharmingen.
Minocycline hydrochloride (MINO) (Wyeth Ledele, Tokyo, Japan) and clindamycin (CLDM) (Pharmacia, Tokyo, Japan) were used. On day one, 133 μg of MINO and 1.6 mg of CLDM were administered intratrancheally (i.t.). Subsequently, the same dose of each antibiotic was injected intraperitoneally (i.p.) everyday for one week before immunization, then intraperitoneal injection was conducted three times per week. During the experiment, mice were given water containing each antibiotic at the same dose as mentioned above. Similarly, ampicillin (ABPC), cefazolin sodium (CEZ), gentamicin sulfate (GM), fosfomycin (FOM), clarithromycin (CAM) were used and single dose of these antibiotics was set by calculating the maximum amount for regular use by adults based on their body weight.

[3] = system: indigenous P. acnes in the mouse lung; test: PCR detection of indigenous P. acnes in the mouse lung after antibiotics; assay type: in vivo, Propionibacterium acnes; details: PBS as a control; FIG. 8
Procedure: Samples of 1 μg of total RNA were isolated from the lungs, and regional lymph nodes samples of the lung, the liver, the skin and the pancreas of SPF mice using Trizol (Invitrogen, Groningen, the Netherlands) according to the manufacturer's instructions. Then, RNA samples were reverse transcribed into cDNA, and amplified (J. Exp. Med. 193, 35-49, 2001; J. Clin. Invest. 102, 1933-1941, 1998). PCR products of 16s ribosomal RNA of P. acnes were electrophoresed on 2.5% agarose gel. The bands visualized by ethidium bromide staining were expected size for each mRNA product. Oligonucleotide primers for P. acnes were designed as described previously (J. Clin. Microbiol. 40, 198-204, 2002): forward, 5′-[…]-3′ (SEQ ID NO: 1); reverse, 5′-TTCCGACGCGATCAACCA-3′ (SEQ ID NO: 2). Contamination of P. acnes during the experiment was checked by buffer control. As primers for GAPDH as an internal standard, previously described ones were used (J. Exp. Med. 193, 35-49, 2001). PCR conditions: heated at 95° C. for 5 min, followed by 40 cycles of 95° C. for 30 sec, 58° C. for 60 sec, 72° C. for 60 sec, and finally heated at 72° C. for 10 min.
Minocycline hydrochloride (MINO) (Wyeth Ledele, Tokyo, Japan) and clindamycin (CLDM) (Pharmacia, Tokyo, Japan) were used. On day one, 133 μg of MINO and 1.6 mg of CLDM were administered intratrancheally (i.t.). […]

Compound | size of ear swelling [1] | spleen index [1] | decrease of the total number of BAL leukocytes (improved by) ([2]; FIG. 7) | decrease of the total number of BAL leukocytes (improved by), group administered for a short period ([2]; FIG. 7, short: antibiotics initiated one month after treatment of the model (at the last immunization), versus PBS set at 100) | number of CD4+ BAL cells decreased by [2] | effect on BAL cells (FIG. 7), in words ([2]; FIG. 7, in comparison to the control (PBS) group) | indigenous P. acnes in the mouse lung by PCR [3]
CCC[C@@H]1C[C@@H](C(=O)N[C@@H]([C@H]2O[C@H](SC)[C@H](O)[C@@H](O)[C@H]2O)[C@H](C)Cl)N(C)C1 [CLDM, clindamycin] | no marked differences | no marked differences | 42.1% | 74.3% | 42.1% |  | 
gentamicin sulfate [GM] |  |  |  |  |  | no effect | did not decrease so much
CN(C)c1ccc(O)c2c1C[C@H]1C[C@H]3[C@H](N(C)C)C(O)=C(C(N)=O)C(=O)[C@@]3(O)C(O)=C1C2=O [MINO, minocycline hydrochloride] | no marked differences | no marked differences | 53.5% |  | 53.5% |  | 
CC1(C)S[C@@H]2[C@H](NC(=O)[C@H](N)c3ccccc3)C(=O)N2[C@H]1C(=O)O [ABPC, ampicillin] |  |  | 46.1% |  |  |  | 
CC[C@H]1OC(=O)[C@H](C)[C@@H](O[C@H]2C[C@@](C)(OC)[C@@H](O)[C@H](C)O2)[C@H](C)[C@@H](O[C@@H]2O[C@H](C)C[C@H](N(C)C)[C@H]2O)[C@](C)(OC)C[C@@H](C)C(=O)[C@H](C)[C@@H](O)[C@]1(C)O [CAM, clarithromycin] |  |  | 48.3% |  |  |  | 

Reference: patent publication US20070111956A1, “Remedy for sarcoidosis and method of treating the same” (Japan Science and Technology Agency, priority 2003, published 2007)
